Experimental data published in PubChem BioAssay (NCI).
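All cell lines were grown in 96-well plates and treated with compound for 48 hours. The concentration for full growth arrest is given as TGI.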 Where a SMILES comes first, the peptide text is derived from it. [ ]: non-standard residue; d: D form. The star is where a group is joined. X28 = COC1=CC(=O)N(C(=O)[C@@H](O*)C(C)C)[C@H]1Cc1ccccc1; NMeL = CN[C@@H](CC(C)C)C(=O)O; Cbz = O=C(OCc1ccccc1)*

Experiments:
Test in all cases: NCI-60 cell line screen, 48 h
BT-549 breast = test system: BT-549 breast
K-562 leukemia = test system: K-562 leukemia
LOX IMVI melanoma = test system: LOX IMVI melanoma
MDA-MB-231 breast = test system: MDA-MB-231 breast
MDA-N = test system: MDA-N
NCI-H23 lung = test system: NCI-H23 lung
NCI/ADR-RES ovarian = test system: NCI/ADR-RES ovarian
OVCAR-8 ovarian = test system: OVCAR-8 ovarian
RPMI-8226 leukemia = test system: RPMI-8226 leukemia
SF-295 CNS = test system: SF-295 CNS
SF-539 CNS = test system: SF-539 CNS
SK-OV-3 ovarian = test system: SK-OV-3 ovarian
SN12C renal = test system: SN12C renal
U251 CNS = test system: U251 CNS
UACC-257 melanoma = test system: UACC-257 melanoma

SMILES	TGI (BT-549 breast)	TGI (K-562 leukemia)	TGI (LOX IMVI melanoma)	TGI (MDA-MB-231 breast)	TGI (MDA-N)	TGI (NCI-H23 lung)	TGI (NCI/ADR-RES ovarian)	TGI (OVCAR-8 ovarian)	TGI (RPMI-8226 leukemia)	TGI (SF-295 CNS)	TGI (SF-539 CNS)	TGI (SK-OV-3 ovarian)	TGI (SN12C renal)	TGI (U251 CNS)	TGI (UACC-257 melanoma)
COc1cc(C2c3cc4c(cc3OC(N3CCOCC3)C2C)OCO4)cc(OC)c1OC (configuration not stated)	65.8 µM	> 54.3 µM	> 53.3 µM	37.3 µM	0.439 µM	18.2 µM	2.01 µM	59.2 µM	> 23.7 µM	10.4 µM	1.69 µM	23.4 µM	> 100 µM	> 20.1 µM	> 59.7 µM
Cc1cc(NS(=O)(=O)c2ccc(NC(=O)c3cccc4c(NNc5ccc(S(N)(=O)=O)cc5)c5ccccc5nc34)cc2)no1	> 100 µM	> 100 µM	86.1 µM	> 100 µM	> 100 µM	> 100 µM	> 100 µM	> 100 µM	> 100 µM	> 100 µM	> 100 µM	> 100 µM	> 100 µM	63.6 µM	> 100 µM
S=C1NC2=C(COC/C2=C\c2ccccc2Cl)C(c2ccccc2Cl)N1 (configuration not stated)	> 100 µM	> 100 µM	70.7 µM	> 100 µM	> 100 µM	> 100 µM	> 100 µM	> 100 µM	> 100 µM	> 100 µM	> 100 µM	> 100 µM	> 100 µM	> 100 µM	> 100 µM
CCOC(=O)c1[nH]n(-c2ccccc2)c(=O)c1C=NC(=S)C(N)=S	> 100 µM	> 100 µM	> 100 µM	> 100 µM	> 100 µM	> 100 µM	> 100 µM	> 100 µM		> 100 µM	57.4 µM	> 100 µM	> 100 µM	> 100 µM	> 100 µM
Cc1ccc(N2C(=O)C(O)=C(C(=O)C(C)(C)C)C2c2ccc([N+](=O)[O-])cc2)cc1 (configuration not stated)	39 µM	85.2 µM	36.9 µM	45.7 µM	69.2 µM	35.2 µM	53.8 µM	59.1 µM	49.4 µM	88.8 µM	63 µM	57.2 µM	52.8 µM	> 100 µM	34.8 µM
COc1ccc(-c2cc(-c3ccc(Nc4ccnc5cc(C(F)(F)F)ccc45)cc3)[nH]c(=O)c2C#N)cc1	> 94.9 µM	> 100 µM	> 100 µM	> 82.9 µM	98.5 µM	> 60.8 µM	> 100 µM	> 100 µM	> 100 µM	> 57.6 µM	> 68.9 µM	> 47.4 µM	> 100 µM	> 70.9 µM	> 100 µM
Nc1nc(SCc2ccccc2[N+](=O)[O-])c2[nH]cnc2n1	> 100 µM	> 100 µM	> 100 µM	> 100 µM	> 100 µM	> 100 µM	> 100 µM	> 100 µM	> 100 µM	> 100 µM	> 100 µM	> 100 µM	> 100 µM	> 100 µM	> 75.9 µM
C[N+](C)(N)Cc1csc(-c2ccc(Cl)cc2)n1	> 100 µM	> 100 µM	> 100 µM	> 100 µM	> 100 µM	> 100 µM	> 100 µM	> 100 µM	> 100 µM	> 100 µM	> 100 µM	> 100 µM	> 100 µM	> 100 µM	> 100 µM
CC(Nc1cc(=O)n(C)c(=O)[nH]1)c1ccccc1 (configuration not stated)	> 100 µM	> 100 µM	> 100 µM	> 100 µM	> 100 µM	> 100 µM	> 100 µM	> 100 µM		> 100 µM	> 100 µM		> 100 µM	> 100 µM	> 100 µM
O=c1[nH]c2cc([N+](=O)[O-])c(N(CCO)CCO)c([N+](=O)[O-])c2[nH]1	51.7 µM	> 100 µM	> 100 µM	> 100 µM	> 100 µM	> 100 µM	> 100 µM	> 100 µM	98.1 µM	> 100 µM	77.1 µM	89.7 µM	> 100 µM	> 100 µM	59.3 µM
CNc1nc(=O)c(C#N)c(-c2ccc(C)cc2)s1	> 100 µM	> 100 µM	> 100 µM	> 100 µM	> 100 µM	> 100 µM	> 100 µM	> 100 µM		> 100 µM	> 100 µM	> 100 µM	> 100 µM	> 100 µM	> 100 µM
CCN(CC)CCNc1ccc2nnn3c4ccc(OC(C)=O)cc4c(=O)c1c23	27.2 µM	> 19.8 µM	6.83 µM	16 µM	17.8 µM	18.9 µM	19.1 µM	16.7 µM	5.56 µM	19.3 µM	9.47 µM	21 µM	15.8 µM	15.5 µM	24.9 µM
CC1=NN(c2cccc(Cl)c2)C2(C1)SCC(=O)N2c1nc2ccccc2s1 (configuration not stated)	> 100 µM	48.9 µM	41.6 µM	40.3 µM	> 100 µM	84.5 µM	> 100 µM	> 100 µM	38.6 µM	74.9 µM	45.8 µM	85.3 µM	69.1 µM	75.2 µM	57.7 µM
CC1(C)C(C(=O)OC(C#N)c2cccc(OCC(=O)OCc3ccccc3)c2)C1(C)C (configuration not stated)	> 100 µM	> 100 µM	> 100 µM	> 100 µM	> 100 µM	> 100 µM	> 100 µM	> 100 µM		> 100 µM	> 100 µM	> 100 µM	> 100 µM	> 100 µM	> 100 µM
O=C(Nc1ccc(Cl)cc1)c1cc(S(=O)(=O)NC2=NC(c3ccccc3)c3cc(Cl)ccc3N2)c(SSc2cc(Cl)c(C(=O)Nc3ccc(Cl)cc3)cc2S(=O)(=O)NC2=NC(c3ccccc3)c3cc(Cl)ccc3N2)cc1Cl (configuration not stated)	> 100 µM	> 100 µM	> 100 µM	> 100 µM	> 100 µM	> 100 µM	> 100 µM	> 100 µM	> 100 µM	> 100 µM	> 100 µM	> 100 µM	> 100 µM	> 100 µM	> 100 µM
CN1CCN(CCCCNc2cc3c4ccccc4c(NCCCCN4CCN(C)CC4)cc3c3ccccc23)CC1	14.9 µM	6.8 µM	2.42 µM	2.89 µM	0.977 µM		21.6 µM	10.2 µM	4.14 µM	3.77 µM	3.28 µM	29.4 µM	9.27 µM	4.21 µM	19 µM
CCOC(=S)SC/C(=N\OC(C)(C)OC)c1ccccc1	> 100 µM	56 µM	31.2 µM	> 100 µM	> 100 µM	> 100 µM	> 100 µM	> 100 µM		> 100 µM	> 100 µM	> 100 µM	> 100 µM	> 100 µM	> 100 µM
O=C1O[C@H](COC(=O)c2ccccc2)[C@@H](OC(=O)c2ccccc2)C=C1OC(=O)c1ccccc1	43.7 µM	57.4 µM	39.3 µM	36.2 µM	> 100 µM	42.6 µM	38.8 µM	45.4 µM	71.8 µM	34.8 µM	32.5 µM	> 100 µM	36.9 µM	32.3 µM	69.3 µM
CN(c1ccccc1Cl)S(=O)(=O)c1ccccc1	> 100 µM	> 100 µM	> 100 µM	> 100 µM	> 100 µM	> 100 µM	> 100 µM	> 100 µM	> 100 µM	> 100 µM	> 100 µM	> 100 µM	> 100 µM	> 100 µM	> 100 µM
CC(=N\N=C\c1ccccn1)/C(C)=N/N=C/c1ccccn1	> 100 µM		> 100 µM	> 100 µM	> 100 µM	> 100 µM	> 100 µM	> 100 µM	> 100 µM	> 100 µM	> 100 µM	> 100 µM	> 100 µM	> 100 µM	> 100 µM
OC(C1CCCC1=N/N=C1/CCCC1C(O)(C(F)(F)Cl)C(F)(F)Cl)(C(F)(F)Cl)C(F)(F)Cl (configuration not stated)	> 10 µM	> 10 µM	> 10 µM	> 10 µM	> 10 µM	> 10 µM	> 10 µM	> 10 µM	> 10 µM	> 10 µM	> 10 µM	> 10 µM	> 10 µM	> 10 µM	> 10 µM
COC1=CC(=O)N(C(=O)[C@@H](OC(=O)[C@@H]2CCCN2C(=O)[C@@H]2CCCN2C(=O)[C@H](CC(C)C)N(C)C(=O)[C@@H](NC(=O)[C@@H](NC(=O)OCc2ccccc2)C(C)C)C(C)C)C(C)C)[C@H]1Cc1ccccc1 (Cbz-VV[NMeL]PP-X28)	> 100 µM	> 100 µM	> 100 µM	61.9 µM	> 100 µM	> 100 µM	> 100 µM	> 100 µM	> 100 µM	> 100 µM	43.8 µM	> 100 µM	> 100 µM	> 100 µM	> 100 µM
CN(C)C(=O)CO/N=C1/C(c2c(O)[nH]c3ccccc23)=Nc2ccccc21	> 100 µM	> 100 µM	> 100 µM	> 100 µM	> 100 µM	> 100 µM	> 100 µM	> 100 µM	> 100 µM	> 100 µM	> 100 µM	> 100 µM	> 100 µM	> 100 µM	> 100 µM
CCOc1ccc(C(c2c(O)c3ccccc3oc2=O)c2c(O)c3ccccc3oc2=O)cc1	> 100 µM	> 100 µM	> 100 µM	> 100 µM	> 100 µM	> 100 µM	> 100 µM	> 100 µM	93.8 µM	> 100 µM	> 100 µM	> 100 µM	> 100 µM	> 100 µM	> 100 µM
CCC(C)N1CN(c2ccccc2)C2(CCN(CCCC(=O)c3ccc(F)cc3)CC2)C1=O (configuration not stated)	26 µM	> 100 µM	10.8 µM	23.1 µM	25.5 µM	14.1 µM	> 100 µM		31.5 µM	15.8 µM	21 µM	21.5 µM	14.3 µM	16.9 µM	
Cc1cc2nc(NS(=O)(=O)c3cc(C)c(Cl)cc3S)[nH]c2cc1C	> 100 µM	> 100 µM	> 100 µM	> 100 µM	> 100 µM	> 100 µM	> 100 µM	> 100 µM	> 100 µM	> 100 µM	> 100 µM	> 100 µM	> 100 µM	> 100 µM	> 100 µM
CCOc1ccc(-n2c(=O)n3c(Nc4ccc(Cl)cc4)nc4c(c(=O)n(C)c(=O)n4C)n3c2=O)cc1	64.3 µM	84 µM	44.8 µM	35.1 µM	> 100 µM	64.2 µM	> 100 µM	> 100 µM	61.4 µM	> 100 µM	> 100 µM		74.6 µM	> 100 µM	60.4 µM
N#CCCCCC12C3C(=O)N(c4ccccc4)C(=O)C3ON1O[C@@H]1C(=O)N(c3ccccc3)C(=O)[C@@H]12 (some centres not stated)	> 100 µM	> 100 µM	> 100 µM	> 100 µM	> 100 µM	> 100 µM	> 100 µM	> 100 µM		> 100 µM	> 100 µM	> 100 µM	> 100 µM	> 100 µM	> 100 µM
COC(=O)Nc1nc2ccc(NS(=O)(=O)c3ccc(F)cc3)cc2[nH]1	> 100 µM	> 100 µM	> 100 µM	> 100 µM	7.45 µM	> 100 µM	54.2 µM	> 100 µM	81.2 µM	70.4 µM	52.9 µM	> 100 µM	> 100 µM	> 100 µM	
